# Assay results published in PMC8811955 (Biochemistry, 2022).
# Test system: ySB267 (OSR4p-SEC4, Ca.Ste2)
# Experiment: Peptide concentration-dependent growth of ySB267
# Type: cell-based, Saccharomyces cerevisiae
# Settings: ySB267, tested concentrations, 20 h
sequence,measurement,value
GFRLTNFGYFEPG [Ca peptide],Peptide concentration above which maximum growth rate was reached,> 2.5 nM
